Measured values published in ChEMBL document CHEMBL5543165, “Recent Progress in DNA Damage Response-Targeting PROTAC Degraders” (J Med Chem, 2024).
Blank lines part the entries; values can stand above or below the compound they belong to.

Columns and labels:
[1] = target: T1, von Hippel-Lindau disease tumor suppressor/Serine/threonine-protein kinase ATR (Homo sapiens) (UniProt Q13535+P40337); assay: PROTAC activity at […]/VHL in […] human HCT-116 cells assessed as maximum protein degradation at 5 uM measured after 24 hrs by immunoblot analysis relative to control; assay type: cell-based
[2] = target: T1, von Hippel-Lindau disease tumor suppressor/Serine/threonine-protein kinase ATR (Homo sapiens); assay: PROTAC activity at […]/VHL in human LoVo cells assessed as maximum protein degradation at 5 uM measured after 24 hrs by immunoblot analysis relative to control; assay type: cell-based
[3] = system: LoVo; assay: Antitumor activity against human LoVo cells xenografted in BALB/c mouse assessed as tumor growth inhibition at 25 mg/kg, ip administered once daily for 14 days relative to control; assay type: functional; conditions: 336 h, time 14 day, read-out: TGI
[4] = system: LoVo; assay: Antitumor activity against human LoVo cells xenografted in BALB/c mouse assessed as tumor growth inhibition at 50 mg/kg, ip administered once daily for 14 days relative to control; assay type: functional; conditions: 336 h, time 14 day, read-out: TGI
[5] = system: MOLT-4; assay: Antiproliferative activity against human MOLT-4 cells assessed as reduction in cell viability incubated for 72 hrs by CellTiter-Glo Luminescent assay; assay type: functional, cell-based; conditions: MOLT-4, 72 h
[6] = target: T2, von Hippel-Lindau disease tumor suppressor/SWI/SNF-related matrix-associated actin-dependent regulator of chromatin subfamily A member 2 (Homo sapiens, UniProt P51531+P40337); assay: PROTAC activity at VHL/SMARCA2 in human RKO cells assessed as degradation of SMARCA2 incubated for 18 hrs by Western blot analysis; assay type: cell-based
[7] = target: T3, von Hippel-Lindau disease tumor suppressor/SWI/SNF-related matrix-associated actin-dependent regulator of chromatin subfamily A member 4 (Homo sapiens, UniProt P51532+P40337); assay: PROTAC activity at VHL/SMARCA4 in human RKO cells assessed as maximal degradation of SMARCA4 at 10 nM relative to control; assay type: cell-based
Target sequence in this assay (P40337 whole entry, looked up): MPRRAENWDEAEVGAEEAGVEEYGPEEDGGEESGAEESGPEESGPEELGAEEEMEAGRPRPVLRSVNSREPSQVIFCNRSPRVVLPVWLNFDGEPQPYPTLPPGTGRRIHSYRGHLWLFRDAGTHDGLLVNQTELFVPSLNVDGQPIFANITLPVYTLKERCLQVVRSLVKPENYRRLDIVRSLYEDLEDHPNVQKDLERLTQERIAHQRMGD
Target sequence in this assay (P51532 whole entry, looked up): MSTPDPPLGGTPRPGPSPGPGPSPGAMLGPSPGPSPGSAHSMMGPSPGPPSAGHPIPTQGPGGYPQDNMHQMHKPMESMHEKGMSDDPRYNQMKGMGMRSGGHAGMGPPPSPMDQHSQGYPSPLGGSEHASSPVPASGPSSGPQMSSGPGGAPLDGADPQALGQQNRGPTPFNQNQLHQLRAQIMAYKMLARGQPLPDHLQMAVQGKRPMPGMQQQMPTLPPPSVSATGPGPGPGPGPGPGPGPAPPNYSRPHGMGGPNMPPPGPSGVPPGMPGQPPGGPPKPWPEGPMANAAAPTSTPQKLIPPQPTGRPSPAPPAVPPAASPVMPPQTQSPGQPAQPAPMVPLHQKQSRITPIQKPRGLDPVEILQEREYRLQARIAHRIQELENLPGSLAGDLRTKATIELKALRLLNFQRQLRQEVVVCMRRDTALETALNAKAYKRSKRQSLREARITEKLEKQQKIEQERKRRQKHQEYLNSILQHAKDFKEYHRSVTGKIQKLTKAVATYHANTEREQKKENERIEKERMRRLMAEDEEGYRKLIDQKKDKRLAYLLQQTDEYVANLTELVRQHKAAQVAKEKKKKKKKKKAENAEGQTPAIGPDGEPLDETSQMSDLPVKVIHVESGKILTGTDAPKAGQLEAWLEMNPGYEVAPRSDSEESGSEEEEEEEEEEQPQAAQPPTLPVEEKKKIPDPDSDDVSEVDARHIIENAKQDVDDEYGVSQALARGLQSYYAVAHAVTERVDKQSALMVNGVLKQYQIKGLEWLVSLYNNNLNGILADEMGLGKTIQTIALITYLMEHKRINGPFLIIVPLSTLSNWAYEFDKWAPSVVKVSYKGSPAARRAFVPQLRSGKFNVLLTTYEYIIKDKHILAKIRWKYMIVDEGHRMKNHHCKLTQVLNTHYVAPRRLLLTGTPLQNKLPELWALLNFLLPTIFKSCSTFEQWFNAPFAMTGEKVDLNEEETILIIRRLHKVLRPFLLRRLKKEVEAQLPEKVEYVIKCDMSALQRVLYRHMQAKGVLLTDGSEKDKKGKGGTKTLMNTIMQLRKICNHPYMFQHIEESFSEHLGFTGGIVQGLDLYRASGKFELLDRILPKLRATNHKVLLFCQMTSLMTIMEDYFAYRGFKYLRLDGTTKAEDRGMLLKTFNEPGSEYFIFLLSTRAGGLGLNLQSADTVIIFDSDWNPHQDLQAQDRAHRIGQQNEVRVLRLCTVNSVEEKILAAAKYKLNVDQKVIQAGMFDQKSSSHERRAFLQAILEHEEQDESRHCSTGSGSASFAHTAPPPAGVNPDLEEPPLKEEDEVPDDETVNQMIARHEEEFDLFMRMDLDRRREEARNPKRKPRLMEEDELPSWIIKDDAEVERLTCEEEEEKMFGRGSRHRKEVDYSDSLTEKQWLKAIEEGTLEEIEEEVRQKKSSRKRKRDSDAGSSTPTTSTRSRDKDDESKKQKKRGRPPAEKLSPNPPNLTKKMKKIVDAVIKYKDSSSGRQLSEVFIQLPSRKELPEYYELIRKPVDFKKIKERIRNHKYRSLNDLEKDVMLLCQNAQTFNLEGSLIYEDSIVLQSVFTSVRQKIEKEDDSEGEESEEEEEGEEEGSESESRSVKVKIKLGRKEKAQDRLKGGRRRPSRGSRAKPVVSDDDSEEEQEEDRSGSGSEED

[8] = target: T2, von Hippel-Lindau disease tumor suppressor/SWI/SNF-related matrix-associated actin-dependent regulator of chromatin subfamily A member 2; assay: PROTAC activity at VHL/SMARCA2 in human MV4-11 cells assessed as induction of SMARCA2 degradation at 10 uM by measuring maximal efficacy incubated for 20 hrs by Western blotting analysis relative to control; assay type: cell-based
[9] = target: T4, Protein cereblon/Wee1-like protein kinase (Homo sapiens) (UniProt P30291+Q96SW2); assay: PROTAC activity at CRBN/Wee1 in human MV4-11 cells assessed as maximal degradation of Wee1 at 100 nM measured after 2 hrs by Western blot analysis relative to control; assay type: cell-based
[10] = target: Protein cereblon/Cyclin-dependent kinase 12 (Homo sapiens) (UniProt Q9NYV4+Q96SW2); assay: PROTAC activity at CRBN/CDK12 in human HeLa cells assessed as maximal degradation of CDK12 at 1 uM measured after 24 hrs by Western blot analysis relative to control; assay type: cell-based
[11] = target: T4, Protein cereblon/Wee1-like protein kinase (Homo sapiens); assay: PROTAC activity at CRBN/Wee1 in human MV4-11 cells assessed as maximal degradation of Wee1 at 1 uM measured after 2 hrs by Western blot analysis relative to control; assay type: cell-based
[12] = target: Protein cereblon/Bromodomain-containing protein 2 (Homo sapiens) (UniProt P25440+Q96SW2); assay: PROTAC activity at CRBN/BRD2 in human MV4-11 cells assessed as maximal degradation of BRD2 protein level at 0.5 uM incubated for 4 hrs by Western blotting assay relative to control; assay type: cell-based
[13] = system: MV4-11; assay: Antitumor activity against human MV4-11 cells xenografted in BALB/c nude mouse assessed as tumor growth inhibition at 25 mg/kg, po administered once daily for 17 days relative to control; assay type: functional; conditions: MV4-11, 408 h, time 17 day, read-out: TGI
[14] = target: T3, von Hippel-Lindau disease tumor suppressor/SWI/SNF-related matrix-associated actin-dependent regulator of chromatin subfamily A member 4; assay: PROTAC activity at VHL/SMARCA4 in human RKO cells assessed as degradation of SMARCA4; assay type: cell-based
Target sequence in this assay (P51532 whole entry): as the sequence (P51532 whole entry, looked up) above
Target sequence in this assay (P40337 whole entry): as the sequence (P40337 whole entry, looked up) above

[15] = target: Protein cereblon/Poly [ADP-ribose] polymerase 1 (Homo sapiens, UniProt P09874+Q96SW2); assay: PROTAC activity at CRBN/PARP1 in human SW620 cells assessed as degradation of PARP1 measured after 24 hrs by Western blot analysis; assay type: cell-based

T1 sequence (P40337 whole entry, looked up): as above
T1 sequence (Q13535 whole entry, looked up): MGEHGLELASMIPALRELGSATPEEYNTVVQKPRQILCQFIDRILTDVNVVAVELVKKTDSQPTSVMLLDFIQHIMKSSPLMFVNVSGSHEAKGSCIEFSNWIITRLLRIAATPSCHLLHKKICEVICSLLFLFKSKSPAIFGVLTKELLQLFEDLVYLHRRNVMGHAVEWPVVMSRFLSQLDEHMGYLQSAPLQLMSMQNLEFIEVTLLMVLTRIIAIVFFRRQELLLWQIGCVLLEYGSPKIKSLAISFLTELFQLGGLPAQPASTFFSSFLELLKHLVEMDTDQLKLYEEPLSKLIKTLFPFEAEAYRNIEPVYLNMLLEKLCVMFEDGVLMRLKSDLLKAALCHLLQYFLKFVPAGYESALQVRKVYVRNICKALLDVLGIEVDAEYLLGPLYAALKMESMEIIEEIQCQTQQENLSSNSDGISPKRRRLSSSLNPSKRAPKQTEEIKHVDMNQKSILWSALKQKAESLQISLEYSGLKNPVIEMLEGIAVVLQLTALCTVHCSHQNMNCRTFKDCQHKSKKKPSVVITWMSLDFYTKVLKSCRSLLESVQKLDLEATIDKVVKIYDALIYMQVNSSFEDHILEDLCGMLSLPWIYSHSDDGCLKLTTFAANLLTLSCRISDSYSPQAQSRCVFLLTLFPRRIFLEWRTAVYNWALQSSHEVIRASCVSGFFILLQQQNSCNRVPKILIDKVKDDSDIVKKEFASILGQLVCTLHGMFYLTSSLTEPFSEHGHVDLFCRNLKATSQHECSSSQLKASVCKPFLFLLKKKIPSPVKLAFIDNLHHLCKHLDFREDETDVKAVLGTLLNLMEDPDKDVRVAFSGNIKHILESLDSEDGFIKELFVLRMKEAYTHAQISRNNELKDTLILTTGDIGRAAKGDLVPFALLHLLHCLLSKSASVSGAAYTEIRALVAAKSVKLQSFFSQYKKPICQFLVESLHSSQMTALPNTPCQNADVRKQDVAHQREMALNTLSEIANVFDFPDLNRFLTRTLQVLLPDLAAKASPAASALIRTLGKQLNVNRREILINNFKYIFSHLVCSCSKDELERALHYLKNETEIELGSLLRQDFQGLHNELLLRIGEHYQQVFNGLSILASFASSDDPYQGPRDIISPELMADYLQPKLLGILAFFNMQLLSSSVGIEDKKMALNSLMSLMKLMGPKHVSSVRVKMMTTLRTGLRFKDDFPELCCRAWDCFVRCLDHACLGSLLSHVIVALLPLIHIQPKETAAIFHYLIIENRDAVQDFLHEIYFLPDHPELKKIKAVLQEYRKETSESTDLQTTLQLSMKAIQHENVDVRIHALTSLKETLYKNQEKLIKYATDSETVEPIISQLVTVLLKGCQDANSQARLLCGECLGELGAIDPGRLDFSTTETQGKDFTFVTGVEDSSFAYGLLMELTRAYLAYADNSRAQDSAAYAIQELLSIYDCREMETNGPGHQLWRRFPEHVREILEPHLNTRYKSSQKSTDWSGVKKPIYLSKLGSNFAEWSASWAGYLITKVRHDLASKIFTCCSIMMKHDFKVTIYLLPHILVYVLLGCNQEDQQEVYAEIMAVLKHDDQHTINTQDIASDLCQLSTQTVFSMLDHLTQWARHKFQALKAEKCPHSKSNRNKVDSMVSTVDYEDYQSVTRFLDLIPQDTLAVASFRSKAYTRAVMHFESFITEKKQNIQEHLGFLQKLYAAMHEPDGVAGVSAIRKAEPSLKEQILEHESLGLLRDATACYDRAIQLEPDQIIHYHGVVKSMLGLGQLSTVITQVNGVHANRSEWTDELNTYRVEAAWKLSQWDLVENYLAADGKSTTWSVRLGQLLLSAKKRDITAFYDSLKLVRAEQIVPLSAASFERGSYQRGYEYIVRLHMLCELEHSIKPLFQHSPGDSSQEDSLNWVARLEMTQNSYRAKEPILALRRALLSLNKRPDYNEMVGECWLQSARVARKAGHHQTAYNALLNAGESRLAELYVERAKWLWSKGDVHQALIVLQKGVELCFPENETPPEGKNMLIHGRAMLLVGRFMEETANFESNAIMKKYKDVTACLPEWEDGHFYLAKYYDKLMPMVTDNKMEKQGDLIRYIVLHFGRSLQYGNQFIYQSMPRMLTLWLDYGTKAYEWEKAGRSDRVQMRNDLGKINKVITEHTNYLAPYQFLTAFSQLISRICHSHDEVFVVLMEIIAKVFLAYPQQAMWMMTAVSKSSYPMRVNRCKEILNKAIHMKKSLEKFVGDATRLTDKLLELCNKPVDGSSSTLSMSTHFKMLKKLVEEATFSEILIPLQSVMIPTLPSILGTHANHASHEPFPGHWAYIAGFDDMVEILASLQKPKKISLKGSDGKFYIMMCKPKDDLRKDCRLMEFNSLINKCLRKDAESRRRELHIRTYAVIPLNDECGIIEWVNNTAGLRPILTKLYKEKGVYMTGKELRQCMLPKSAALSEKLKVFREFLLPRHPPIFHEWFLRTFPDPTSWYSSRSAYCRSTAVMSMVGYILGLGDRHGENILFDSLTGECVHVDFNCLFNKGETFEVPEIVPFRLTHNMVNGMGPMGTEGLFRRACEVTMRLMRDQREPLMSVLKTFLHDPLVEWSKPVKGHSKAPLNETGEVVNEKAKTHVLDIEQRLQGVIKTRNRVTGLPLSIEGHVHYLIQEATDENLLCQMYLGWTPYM

Emax [1]: > 80%
Emax [2]: > 80%
Structure (SMILES): C[C@H]1COCCN1c1cc(C2([S@](C)(=O)=NC(=O)CCc3cn(CCCCCCCC(=O)Nc4cccc5c4C(=O)N(C4CCC(=O)NC4=O)C5=O)nn3)CC2)nc(-c2ccnc3[nH]ccc23)n1 (some centres not stated)
inhibition in vivo at 25 mg/kg [3]: 35.9%
inhibition in vivo at 50 mg/kg [4]: 51.8%

IC50 [5]: 0.8 µM
Structure (SMILES): C=CCn1c(=O)c2cnc(Nc3ccc(N4CCN(C)CC4)cc3)nc2n1-c1cccc(C(C)(C)O)n1 [ADAVOSERTIB]

DC50 [6]: 0.002 µM
Emax [7]: 77%
Structure (SMILES): Cc1ncsc1-c1ccc([C@@H](CCCN2CCC(c3ccc4c(c3)n(C3CCCC3)c3nc(=O)c5c(Br)cccc5n43)CC2)NC(=O)[C@@H]2C[C@@H](O)CN2C(=O)[C@@H](NC(=O)C2(F)CC2)C(C)(C)C)cc1

Emax [8]: > 95%
Structure (SMILES): COc1ccc(C(=O)/C=C/C(=O)N2CCN(c3cc(-c4ccccc4O)nnc3N)CC2)cc1

Emax [9]: 50%
IC50 [5]: 0.39 µM
Structure (SMILES): C=CCn1c(=O)c2cnc(Nc3ccc(N4CCN(CCCNc5cccc6c5C(=O)N(C5CCC(=O)NC5=O)C6=O)CC4)cc3)nc2n1-c1cccc(C(C)(C)O)n1 (configuration not stated)

Emax [10]: > 80%
Structure (SMILES): C=CCn1c(=O)c2cnc(Nc3ccc(N4CCN(CCCC(=O)NCCOCCOCCNc5cccc6c5C(=O)N(C5CCC(=O)NC5=O)C6=O)CC4)cc3)nc2n1-c1cccc(C(C)(C)O)n1 (configuration not stated)

Emax [11]: > 70%
Structure (SMILES): C=CCn1c(=O)c2cnc(Nc3ccc(N4CCN(CCCC(=O)N[C@H](C(=O)N5C[C@H](O)C[C@H]5C(=O)NCc5ccc(-c6scnc6C)cc5)C(C)(C)C)CC4)cc3)nc2n1-c1cccc(C(C)(C)O)n1

Emax [12]: > 50%
Structure (SMILES): Nc1ncc(-c2ccc(C(=O)N3CCN(CCCCC(=O)Nc4cccc5c4C(=O)N(C4CCC(=O)NC4=O)C5=O)CC3)cc2)nc1C(=O)Nc1ccccc1 (configuration not stated)
inhibition in vivo at 25 mg/kg [13]: 57%

DC50 [14]: 0.078 µM
Emax [7]: 46%
Structure (SMILES): Cc1ncsc1-c1ccc(CNC(=O)[C@@H]2C[C@@H](O)CN2C(=O)[C@@H](NC(=O)C2(F)CC2)C(C)(C)C)c(OCCCN2CCC(c3ccc4c(c3)n(C3CCCC3)c3nc(=O)c5c(Br)cccc5n43)CC2)c1

DC50 [15]: 5.4 µM
Structure (SMILES): O=C(CCCCCCCCCCC(=O)c1cc(Cc2n[nH]c(=O)c3ccccc23)ccc1F)Cc1cccc2c1CN(C1CCC(=O)NC1=O)C2=O (configuration not stated)
